# Experimental data from the supplement of paper PMC10307832.
# Columns and labels:
# Experiment in all cases: relative viability (nuclei count vs DMSO), 5 days (fraction); higher = more cells survive
# [1] = compound: CN(c1ncccc1CNc1nc(Nc2ccc3c(c2)CC(=O)N3)ncc1C(F)(F)F)S(C)(=O)=O + CS(=O)(=O)N1CCN(Cc2cc3nc(-c4cccc5[nH]ncc45)nc(N4CCOCC4)c3s2)CC1 [Pictilisib] (partner 1 µM)
# Outline: (§1)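 Nuclei were stained with Hoechst during a one-step fixation (final 0.05% Triton X-100, 1% formaldehyde, 1 ug/ml Hoechst) carried out 5 days after dosing, then counted on 4× images. The cells, lung cancer lines in 1536-well plates, had been dosed by pin tool the day after seeding with one drug alone or a fixed anchor-drug dose plus five library-drug doses (not always all listed) in √10 steps. Relative viability is the nuclei count in treated wells divided by that in vehicle wells, and each value is the median of duplicate plates.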
# [2] = compound: CN(c1ncccc1CNc1nc(Nc2ccc3c(c2)CC(=O)N3)ncc1C(F)(F)F)S(C)(=O)=O + Cc1nc(NC(=O)N2CCC[C@H]2C(N)=O)sc1-c1ccnc(C(C)(C)C(F)(F)F)c1 [Alpelisib] (partner 2 µM)
# Outline: as §1
# [3] = compound: CN(c1ncccc1CNc1nc(Nc2ccc3c(c2)CC(=O)N3)ncc1C(F)(F)F)S(C)(=O)=O + N=C(N)NC(=N)NCCc1ccccc1 [Phenformin] (partner 250 µM)
# Outline: as §1
# [4] = compound: CN(c1ncccc1CNc1nc(Nc2ccc3c(c2)CC(=O)N3)ncc1C(F)(F)F)S(C)(=O)=O + NC(=O)Nc1cc(-c2cccc(F)c2)sc1C(=O)N[C@H]1CCCNC1 [AZD7762] (partner 0.2 µM)
# Outline: as §1
cell line,measurement,setting,value
NCI-H1944,relative viability,[1]; first compound 0.01 µM,0.356
same,relative viability,[1]; first compound 0.03162 µM,0.352
same,relative viability,[1]; first compound 0.1 µM,0.335
same,relative viability,[1]; first compound 0.3162 µM,0.342
same,relative viability,[1]; first compound 1 µM,0.396
same,relative viability,[2]; first compound 0.01 µM,0.742
same,relative viability,[2]; first compound 0.03162 µM,0.955
same,relative viability,[2]; first compound 0.1 µM,0.805
same,relative viability,[2]; first compound 0.3162 µM,0.86
same,relative viability,[2]; first compound 1 µM,0.918
same,relative viability,[3]; first compound 0.01 µM,0.22
same,relative viability,[3]; first compound 0.03162 µM,0.201
same,relative viability,[3]; first compound 0.1 µM,0.193
same,relative viability,[3]; first compound 0.3162 µM,0.19
same,relative viability,[3]; first compound 1 µM,0.216
same,relative viability,[4]; first compound 0.01 µM,0.723
same,relative viability,[4]; first compound 0.03162 µM,0.571
same,relative viability,[4]; first compound 0.1 µM,0.602
same,relative viability,[4]; first compound 0.3162 µM,0.672
same,relative viability,[4]; first compound 1 µM,0.658
NCI-H1975,relative viability,[1]; first compound 0.01 µM,0.278
same,relative viability,[1]; first compound 0.03162 µM,0.282
same,relative viability,[1]; first compound 0.1 µM,0.337
same,relative viability,[1]; first compound 0.3162 µM,0.268
same,relative viability,[1]; first compound 1 µM,0.281
same,relative viability,[2]; first compound 0.01 µM,0.66
same,relative viability,[2]; first compound 0.03162 µM,0.592
same,relative viability,[2]; first compound 0.1 µM,0.611
same,relative viability,[2]; first compound 0.3162 µM,0.67
same,relative viability,[2]; first compound 1 µM,0.59
same,relative viability,[3]; first compound 0.01 µM,0.386
same,relative viability,[3]; first compound 0.03162 µM,0.41
same,relative viability,[3]; first compound 0.1 µM,0.377
same,relative viability,[3]; first compound 0.3162 µM,0.392
same,relative viability,[3]; first compound 1 µM,0.311
same,relative viability,[4]; first compound 0.01 µM,0.85
same,relative viability,[4]; first compound 0.03162 µM,0.839
same,relative viability,[4]; first compound 0.1 µM,0.822
same,relative viability,[4]; first compound 0.3162 µM,0.645
same,relative viability,[4]; first compound 1 µM,0.755
NCI-H1993,relative viability,[1]; first compound 0.01 µM,0.832
same,relative viability,[1]; first compound 0.03162 µM,0.754
same,relative viability,[1]; first compound 0.1 µM,0.856
same,relative viability,[1]; first compound 0.3162 µM,0.828
same,relative viability,[1]; first compound 1 µM,0.775
same,relative viability,[2]; first compound 0.01 µM,0.739
same,relative viability,[2]; first compound 0.03162 µM,0.632
same,relative viability,[2]; first compound 0.1 µM,0.612
same,relative viability,[2]; first compound 0.3162 µM,0.663
same,relative viability,[2]; first compound 1 µM,0.674
same,relative viability,[3]; first compound 0.01 µM,0.511
same,relative viability,[3]; first compound 0.03162 µM,0.543
same,relative viability,[3]; first compound 0.1 µM,0.448
same,relative viability,[3]; first compound 0.3162 µM,0.468
same,relative viability,[3]; first compound 1 µM,0.452
same,relative viability,[4]; first compound 0.01 µM,0.852
same,relative viability,[4]; first compound 0.03162 µM,0.837
same,relative viability,[4]; first compound 0.1 µM,0.836
same,relative viability,[4]; first compound 0.3162 µM,0.634
same,relative viability,[4]; first compound 1 µM,0.737
NCI-H2085,relative viability,[1]; first compound 0.01 µM,0.449
same,relative viability,[1]; first compound 0.03162 µM,0.49
same,relative viability,[1]; first compound 0.1 µM,0.624
same,relative viability,[1]; first compound 0.3162 µM,0.469
same,relative viability,[1]; first compound 1 µM,0.515
same,relative viability,[2]; first compound 0.01 µM,0.903
same,relative viability,[2]; first compound 0.03162 µM,0.904
same,relative viability,[2]; first compound 0.1 µM,0.882
same,relative viability,[2]; first compound 0.3162 µM,0.922
same,relative viability,[2]; first compound 1 µM,0.812
same,relative viability,[3]; first compound 0.01 µM,0.743
same,relative viability,[3]; first compound 0.03162 µM,0.781
same,relative viability,[3]; first compound 0.1 µM,0.644
same,relative viability,[3]; first compound 0.3162 µM,0.775
same,relative viability,[3]; first compound 1 µM,0.627
same,relative viability,[4]; first compound 0.01 µM,1
same,relative viability,[4]; first compound 0.03162 µM,1.02
same,relative viability,[4]; first compound 0.1 µM,1.02
same,relative viability,[4]; first compound 0.3162 µM,1.07
same,relative viability,[4]; first compound 1 µM,1.03
NCI-H2087,relative viability,[1]; first compound 0.01 µM,0.852
same,relative viability,[1]; first compound 0.03162 µM,0.77
same,relative viability,[1]; first compound 0.1 µM,0.978
same,relative viability,[1]; first compound 0.3162 µM,0.914
same,relative viability,[1]; first compound 1 µM,0.951
same,relative viability,[2]; first compound 0.01 µM,1.14
same,relative viability,[2]; first compound 0.03162 µM,1.18
same,relative viability,[2]; first compound 0.1 µM,1.11
same,relative viability,[2]; first compound 0.3162 µM,1.12
same,relative viability,[2]; first compound 1 µM,1.19
same,relative viability,[3]; first compound 0.01 µM,0.522
same,relative viability,[3]; first compound 0.03162 µM,0.518
same,relative viability,[3]; first compound 0.1 µM,0.424
same,relative viability,[3]; first compound 0.3162 µM,0.475
same,relative viability,[3]; first compound 1 µM,0.454
same,relative viability,[4]; first compound 0.01 µM,1.28
same,relative viability,[4]; first compound 0.03162 µM,1.3
same,relative viability,[4]; first compound 0.1 µM,1.32
same,relative viability,[4]; first compound 0.3162 µM,1.35
same,relative viability,[4]; first compound 1 µM,1.2
NCI-H2126,relative viability,[1]; first compound 0.01 µM,0.495
same,relative viability,[1]; first compound 0.03162 µM,0.469
same,relative viability,[1]; first compound 0.1 µM,0.452
same,relative viability,[1]; first compound 0.3162 µM,0.533
same,relative viability,[1]; first compound 1 µM,0.459
same,relative viability,[2]; first compound 0.01 µM,0.717
same,relative viability,[2]; first compound 0.03162 µM,0.739
same,relative viability,[2]; first compound 0.1 µM,0.742
same,relative viability,[2]; first compound 0.3162 µM,0.743
same,relative viability,[2]; first compound 1 µM,0.641
same,relative viability,[3]; first compound 0.01 µM,0.515
same,relative viability,[3]; first compound 0.03162 µM,0.514
same,relative viability,[3]; first compound 0.1 µM,0.456
same,relative viability,[3]; first compound 0.3162 µM,0.527
same,relative viability,[3]; first compound 1 µM,0.491
same,relative viability,[4]; first compound 0.01 µM,1.03
same,relative viability,[4]; first compound 0.03162 µM,1.08
same,relative viability,[4]; first compound 0.1 µM,0.961
same,relative viability,[4]; first compound 0.3162 µM,0.904
same,relative viability,[4]; first compound 1 µM,0.902
NCI-H2170,relative viability,[1]; first compound 0.01 µM,0.355
same,relative viability,[1]; first compound 0.03162 µM,0.312
same,relative viability,[1]; first compound 0.1 µM,0.316
same,relative viability,[1]; first compound 1 µM,0.332
same,relative viability,[2]; first compound 0.01 µM,0.762
same,relative viability,[2]; first compound 0.03162 µM,0.874
same,relative viability,[2]; first compound 0.1 µM,0.862
same,relative viability,[2]; first compound 1 µM,0.786
same,relative viability,[3]; first compound 0.01 µM,0.404
same,relative viability,[3]; first compound 0.03162 µM,0.47
same,relative viability,[3]; first compound 0.1 µM,0.424
same,relative viability,[3]; first compound 0.3162 µM,0.332
same,relative viability,[3]; first compound 1 µM,0.323
same,relative viability,[4]; first compound 0.01 µM,0.942
same,relative viability,[4]; first compound 0.03162 µM,1.02
same,relative viability,[4]; first compound 0.1 µM,0.794
same,relative viability,[4]; first compound 0.3162 µM,0.96
same,relative viability,[4]; first compound 1 µM,0.914
NCI-H2347,relative viability,[1]; first compound 0.01 µM,0.609
same,relative viability,[1]; first compound 0.03162 µM,0.614
same,relative viability,[1]; first compound 0.1 µM,0.74
same,relative viability,[1]; first compound 0.3162 µM,0.919
same,relative viability,[1]; first compound 1 µM,0.362
same,relative viability,[2]; first compound 0.01 µM,1.06
same,relative viability,[2]; first compound 0.03162 µM,0.973
same,relative viability,[2]; first compound 0.1 µM,0.893
same,relative viability,[2]; first compound 0.3162 µM,0.972
same,relative viability,[2]; first compound 1 µM,0.817
same,relative viability,[3]; first compound 0.01 µM,0.37
same,relative viability,[3]; first compound 0.03162 µM,0.38
same,relative viability,[3]; first compound 0.1 µM,0.6
same,relative viability,[3]; first compound 0.3162 µM,0.407
same,relative viability,[3]; first compound 1 µM,0.221
same,relative viability,[4]; first compound 0.01 µM,0.818
same,relative viability,[4]; first compound 0.03162 µM,0.654
same,relative viability,[4]; first compound 0.1 µM,0.782
same,relative viability,[4]; first compound 0.3162 µM,0.733
same,relative viability,[4]; first compound 1 µM,0.685
